Experimental data taken from publication PMC6479714, “Multiplex Analysis Platform for Endocrine Disruption Prediction Using Zebrafish” (International Journal of Molecular Sciences, 2019).
Where two headings read alike, the source gives them in different places.

Columns and labels:
[1] = test system: brain aromatase (cyp19a1b); assay: cyp19a1b gene expression (qPCR) in exposed zebrafish embryos; assay type: in vivo, zebrafish (Danio rerio); settings: for LogEC50 (cyp19a1b mRNA): log of EC50 in μM, 48-120 h, our study; for EC50: zebrafish embryos exposed 48–120 hpf, mRNA by qPCR
Description: (§2) Twenty embryos per treatment and replicate were exposed to 3–7 different concentrations of chemical in glass. […] Between 3 and 6 biological replicates were performed per compound and condition in, at least, two independent experiments.
(§3) At 120 hpf, 20 embryos per condition and replicate were pooled and homogenized in TRIreagent and total RNA extracted following the manufacturer’s protocol. Total RNA concentration was estimated by spectrophotometric absorption at 260 nm in a NanoDrop Spectrophotometer ND-1000 (NanoDrop Technologies; Wilmington, DE, USA). One hundred nanograms of RNA were retrotranscribed to cDNA by reverse transcriptase (Superscript III RT-Enzyme, Invitrogen, Carlsbad, CA, USA) and stored at −20 °C. Aliquots 10-times diluted of cDNA were used to quantify the amounts of specific transcripts in a Lightcycler® 480 system (Roche, Basel, Switzerland) by the SYBR GREEN method. Annealing temperature used in amplification reactions was 60 °C in all cases. […] Relative expression levels were quantified using the ΔΔCt method [82] and ef1a as reference gene [83]

[2] = test system: cytosolic sulfotransferase 2 family 2 (sult2st3); assay: sult2st3 gene expression (qPCR) in exposed zebrafish embryos; assay type: in vivo, zebrafish (Danio rerio)
Description: as §2, §3

[3] = target: iodothyronine deiodinase 2 (dio2); assay: dio2 gene expression (qPCR) in exposed zebrafish embryos; assay type: in vivo, zebrafish (Danio rerio); settings: zebrafish embryos exposed 48–120 hpf; mRNA by qPCR; read-out: EC50 dio2
Description: as §2, §3

zebrafish embryos = assay: acute toxicity test from 48–120 hpf based on the OECD FET test; assay type: in vivo, zebrafish (Danio rerio); settings: zebrafish embryos exposed 48–120 hpf; for LC50, class symbol: highest concentration set by water solubility
Description: (§1) Twenty embryos per treatment were exposed to 5 concentrations of compound of interest in a 10× dilution factor from 48–120 hpf, which is the experimental time in which EDCs will be screened posteriorly. Embryos were exposed from 48–120 hpf rather than 0–96 hpf or 0–120 hpf to avoid unspecific toxicity outside of the EDC testing period, which have been chosen on the basis that endocrine pathways, e.g., thyroid metabolism, are not fully functional until 40–55 hpf in zebrafish embryos. Stock solutions of chemicals to be tested were freshly prepared in exposure medium. The highest concentration for each compound was selected according to its water solubility (Table S1). Exposures were performed in glass vessels to assure maximum bioavailability for hydrophobic compounds, and medium was not exchanged during the experiment.

cyp19a1b - fluorescence = settings: 0-96 h, cited from earlier work; for LogEC50 (cyp19a1b - fluorescence): log of EC50 in μM
cyp19a1b - mRNA [4] = settings: cited from earlier work; for LogEC50 (cyp19a1b - mRNA): log of EC50 in μM
vtg - blood [5] = settings: cited from earlier work
[6] = listed physicochemical property, source not given; cited from earlier work
vitellogenin 1 (vtg1) = assay: vtg1 gene expression (qPCR) in exposed zebrafish embryos
Description: as §2, §3

[7] = test system: cytochrome P450 2k22 (cyp2k22); assay: cyp2k22 gene expression (qPCR) in exposed zebrafish embryos; settings: read-out: EC50 cyp2k22; zebrafish embryos exposed 48–120 hpf; mRNA by qPCR
Description: as §2, §3

[8] = acute toxicity test from 48–120 hpf based on the OECD FET test; assay type: in vivo, zebrafish (Danio rerio); settings: in vivo; zebrafish embryos exposed 48–120 hpf
Description: as §1

ERE-GFP - fluorescence = settings: 0-120 h, cited from earlier work
vtg1 - mRNA = settings: 0-168 h; ref [10] (supplement list: Chen 2018); cited from earlier work
cyp19a1b - mRNA [9] = settings: 14 days (adults), cited from earlier work
vtg - blood [10] = settings: cited from earlier work; for LogEC50 (vtg - blood): log of EC50 in μM
vtg - mRNA = settings: 14 days (juveniles), cited from earlier work
cyp19a1b - vtg1 mRNA = assay: estrogenic markers considered together (cyp19a1b - vtg1 mRNA), zebrafish embryos; settings: FUL 10 µM co-exposed with E2
Description: as §2, §3

[11] = ref [3] (supplement list: Brion 2012)
[12] = * mean of an approximate range, ref [21] (supplement list: Molina 2018)
[13] = log of EC50 in μM, ref [21] (supplement list)
[14] = FUL 1 µM co-exposed with E2 1 µM

SMILES: C[C@]12CCC(=O)C=C1CC[C@@H]1[C@@H]2CC[C@@]2(C)[C@H]1CC[C@]2(C)O [17α-MT, 17α-methyltestosterone]
- LogEC50 (cyp19a1b mRNA) [1]: -0.2076
- EC50 [1]: 620 nM
- maximum FI / maximum average overexpression level above controls, sult2st3 ([2]; exposed 48–120 hpf, times above controls): 4.64–8.97
- EC50 ([2]; zebrafish embryos exposed 48–120 hpf, mRNA by qPCR, read-out: EC50 sult2st3): 100 nM
- EC50 [3]: 90 nM
- LC50 (zebrafish embryos): 90200 nM
- EC50 (cyp19a1b - fluorescence; [11]): 40 nM
- LogEC50 (cyp19a1b - fluorescence) (cyp19a1b - fluorescence; ref [3] (supplement list)): -1.398
- EC50 (cyp19a1b - mRNA [4]; 0-144h, * mean of an approximate range, ref [28] (supplement list: Trant 2001)): ~170 nM
- LogEC50 (cyp19a1b - mRNA) (cyp19a1b - mRNA [4]; 0-144h, ref [28] (supplement list)): -0.7696
- EC50 (vtg - blood [5]; 12 days (adults), ref [30] (supplement list: Ankley 2001), read-out: EC50 (vtg - blood)): 660 nM
- EC50 (vtg - blood [5]; 21 days (adults), * mean of an approximate range, ref [29] (supplement list: Pawlowski 2004), read-out: EC50 (vtg1 - blood)): ~2 nM
- LogEC50 (vtg - blood) (vtg - blood [5]; log of EC50 in μM, 12 days (adults), ref [30] (supplement list)): -0.1805
- LogEC50 (vtg1 - blood) (vtg - blood [5]; log of EC50 in μM, 21 days (adults), ref [29] (supplement list)): -2.699
- Water solubility [6]: 33.90 µg/mL
- LogEC50 (vtg1 mRNA) (vitellogenin 1 (vtg1); log of EC50 in μM, 48-120 h, our study): 0.301
- EC50 (vitellogenin 1 (vtg1); read-out: EC50 vtg1, zebrafish embryos exposed 48–120 hpf, mRNA by qPCR (END: downregulation)): 2000 nM
- EC50 [7]: 50 nM

SMILES: CC(C)(c1ccc(O)cc1)c1ccc(O)cc1 [BPA, bisphenol A]
- EC50 ([1]; Danio rerio): 4990 nM
- LogEC50 (cyp19a1b mRNA) [1]: 0.6981
- LC50 [8]: 41600 nM
- EC50 (cyp19a1b - fluorescence; * mean of an approximate range, ref [18] (supplement list: Le Fol 2017)): ~6250 nM
- EC50 (cyp19a1b - fluorescence; ref [2] (supplement list: Petersen 2013)): 7400 nM
- EC50 (cyp19a1b - fluorescence; [11]): 3300 nM
- LogEC50 (cyp19a1b - fluorescence) (cyp19a1b - fluorescence; ref [2] (supplement list)): 0.8692
- LogEC50 (cyp19a1b - fluorescence) (cyp19a1b - fluorescence; ref [3] (supplement list)): 0.5185
- LogEC50 (cyp19a1b - fluorescence) (cyp19a1b - fluorescence; ref [18] (supplement list)): 0.7959
- EC50 (cyp19a1b - mRNA [4]; 0-72 h, ref [20] (supplement list: Saeed 2016)): 220 nM
- EC50 (cyp19a1b - mRNA [4]; 72-96 h, * mean of an approximate range, ref [5] (supplement list: Chung 2011)): ~3000 nM
- LogEC50 (cyp19a1b - mRNA) (cyp19a1b - mRNA [4]; 0-72 h, ref [20] (supplement list)): -0.6576
- LogEC50 (cyp19a1b - mRNA) (cyp19a1b - mRNA [4]; 72-96 h, ref [5] (supplement list)): 0.4771
- EC50 (ERE-GFP - fluorescence; ref [19] (supplement list: Green 2016)): 1230 nM
- LogEC50 (ERE-GFP - fluorescence) (ERE-GFP - fluorescence; log of EC50 in μM, ref [19] (supplement list)): 0.08991
- EC50 (vtg1 - mRNA), class symbol (vtg1 - mRNA): n.e.
- EC50 (cyp19a1b - mRNA [9]; [12]): ~24 nM
- LogEC50 (cyp19a1b - mRNA) (cyp19a1b - mRNA [9]; [13]): -1.62
- EC50 (vtg - blood [5]; 43 days (adults), * mean of an approximate range, ref [22] (supplement list: Sohoni 2001), read-out: EC50 (vtg - blood)): ~1750 nM
- LogEC50 (vtg - blood) (vtg - blood [5]; log of EC50 in μM, 43 days (adults), ref [22] (supplement list)): 0.243
- EC50 (vtg - blood [10]; 14 days (adults), ref [14] (supplement list: Brian 2005)): 650 nM
- EC50 (vtg - blood [10]; 28 days (juveniles), * mean of an approximate range, ref [13] (supplement list: Van den Belt 2004)): ~2630 nM
- LogEC50 (vtg - blood) (vtg - blood [10]; 14 days (adults), ref [14] (supplement list)): -0.1871
- LogEC50 (vtg - blood) (vtg - blood [10]; ref [13] (supplement list)): 0.42
- EC50 (vtg - mRNA; [12]): ~240 nM
- LogEC50 (vtg - mRNA) (vtg - mRNA; [13]): -0.6198
- EC50 (vtg1 - mRNA), class symbol (vitellogenin 1 (vtg1); 48-120 h, our study): n.e.
- effect on expression of vtg1 (vitellogenin 1 (vtg1); exposed 48–120 hpf): did not affect

SMILES: CC/C(=C(/CC)c1ccc(O)cc1)c1ccc(O)cc1 [DES, diethylstilbestrol]
- EC50 ([1]; Danio rerio): 10 nM
- LogEC50 (cyp19a1b mRNA) [1]: -2
- LC50, class symbol (zebrafish embryos): -
- EC50 (cyp19a1b - fluorescence; [11]): 0.01 nM
- LogEC50 (cyp19a1b - fluorescence) (cyp19a1b - fluorescence; ref [3] (supplement list)): -5
- EC50 (cyp19a1b - mRNA [4]; 2-48 h, * mean of an approximate range, ref [6] (supplement list: Kishida 2001)): ~5.5 nM
- LogEC50 (cyp19a1b - mRNA) (cyp19a1b - mRNA [4]; 2-48 h, ref [6] (supplement list)): -2.26

SMILES: C[C@]12CC[C@@H]3c4ccc(O)cc4C[C@@H](CCCCCCCCC[S+]([O-])CCCC(F)(F)C(F)(F)F)[C@H]3[C@@H]1CC[C@@H]2O (stereo partly shown) [FUL, fulvestrant]
- FI cyp19a1b after co-exposure with antagonist [1, 14]: 57.17
- LC50, class symbol (zebrafish embryos): -
- FI vtg1 after co-exposure with antagonist (vitellogenin 1 (vtg1); [14]): 205.50
- rescue effect: decrease of vtg1 compared to single exposure of E2 (vitellogenin 1 (vtg1); [14]): 47.89%
- rescue effects at 10 µM antagonist (cyp19a1b - vtg1 mRNA): no more rescue effects than those observed at 1 µM
